Measured values published in patent publication US9179674B2, “Macrocyclic picolinamide compounds with fungicidal activity” (DOW AGROSCIENCES LLC, priority 2013, dated 2015).
Read-outs that look alike come from different tables or passages of the source.

How the values were obtained:
[1] = test system: Mycosphaerella graminicola; Anamorph: Septoria tritici; assay: Leaf Blotch of Wheat fungicidal activity (SEPTTR); format: in vivo; conditions: Zymoseptoria tritici; for pest or weed control at 100 ppm: rate 100 ppm; for pest or weed control at 121.5 g/ha: rate 121.5 g/H
Outline: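 Acetone solutions diluted with nine volumes of water containing 110 ppm Triton X-100, sprayed to run-off on first-leaf wheat seedlings (Yuma), inoculated with S. tritici before or after treatment. Plants held in dew chambers, then in a 20 °C greenhouse. Disease severity (0–100%) scored when untreated plants fully symptomatic; % control relative to untreated.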

[2] = test system: Puccinia triticina; assay: Wheat Brown Rust fungicidal activity (PUCCRT); format: in vivo; conditions: Puccinia triticina; for pest or weed control at 100 ppm: rate 100 ppm; for pest or weed control at 121.5 g/ha: rate 121.5 g/H
Outline: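 Yuma wheat seedlings at first-leaf stage sprayed to run-off (acetone solution in water with 110 ppm Triton X-100) or track-sprayed as EC with 0.1% Trycol 5941; inoculated with P. triticina spores before or after treatment. Overnight dark dew at 22° C., then greenhouse 24° C.; disease severity 0–100% gives percent control vs untreated.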

[3] = 24 h, 1 Day Protectant, read-out: Disease control SEPTTR 1DP
[4] = 72 h, 3 Day Curative, read-out: Disease control SEPTTR 3DC
[5] = 24 h, 1 Day Protectant, read-out: Disease control PUCCRT 1DP
[6] = 72 h, 3 Day Curative, read-out: Disease control PUCCRT 3DC

| melting point | SMILES | pest or weed control at 100 ppm [1, 3] | pest or weed control at 100 ppm [1, 4] | pest or weed control at 100 ppm [2, 5] | pest or weed control at 100 ppm [2, 6] | pest or weed control at 121.5 g/ha [1, 3] | pest or weed control at 121.5 g/ha [1, 4] | pest or weed control at 121.5 g/ha [2, 5] | pest or weed control at 121.5 g/ha [2, 6] |
| --- | --- | --- | --- | --- | --- | --- | --- | --- | --- |
| 68 to 73 °C | COc1ccnc(C(=O)N[C@H]2COC[C@H](Cc3ccc(F)cc3)[C@@H](OC(=O)C3CC3)[C@H](C)OC2=O)c1O [Compound F13] | 80 to 100% | 80 to 100% | 80 to 100% | 80 to 100% |  |  |  |  |
| 66 to 71 °C | COc1ccnc(C(=O)N[C@H]2COC[C@H](Cc3ccc(F)cc3)[C@@H](OC(=O)C(C)C)[C@H](C)OC2=O)c1O [Compound F14] | 80 to 100% | 80 to 100% | 80 to 100% | 80 to 100% |  |  |  |  |
| 79 to 82 °C | COc1ccnc(C(=O)N[C@H]2COC[C@H](Cc3ccc(Cl)cc3Cl)[C@@H](OC(=O)C(C)C)[C@H](C)OC2=O)c1O [Compound F41] | 80 to 100% | 80 to 100% | 80 to 100% |  |  |  |  |  |
| 60 to 64 °C | COc1ccnc(C(=O)N[C@H]2COC[C@H](Cc3ccc(Cl)cc3Cl)[C@@H](OCC(C)C)[C@H](C)OC2=O)c1O [Compound F42] | 80 to 100% | 80 to 100% | 80 to 100% | 80 to 100% |  |  |  |  |
| 50 to 54 °C | CCCCCO[C@@H]1[C@@H](Cc2ccc(Cl)cc2Cl)COC[C@H](NC(=O)c2nccc(OC)c2O)C(=O)O[C@H]1C [Compound F43] | 80 to 100% | 0 to 80% | 0 to 80% |  |  |  |  |  |
| 55 to 59 °C | COc1ccnc(C(=O)N[C@H]2COC[C@H](CC3CCCC3)[C@@H](OC(=O)C(C)C)[C@H](C)OC2=O)c1O [Compound F45] | 80 to 100% | 80 to 100% | 80 to 100% | 0 to 80% |  |  |  |  |
| 132 to 134 °C | COc1ccnc(C(=O)N[C@H]2COC[C@H](CC3CCCC3)[C@@H](OCC(C)C)[C@H](C)OC2=O)c1O [Compound F46] | 80 to 100% | 80 to 100% | 80 to 100% | 80 to 100% |  |  |  |  |
| 109 to 111 °C | CCCCCO[C@@H]1[C@@H](CC2CCCC2)COC[C@H](NC(=O)c2nccc(OC)c2O)C(=O)O[C@H]1C [Compound F47] | 80 to 100% | 80 to 100% | 80 to 100% | 80 to 100% |  |  |  |  |
| 59 to 64 °C | COc1ccnc(C(=O)N[C@H]2COC[C@H](CCc3ccccc3)[C@@H](OCCCC(F)(F)F)[C@H](C)OC2=O)c1OC(C)=O [Compound F49] | 80 to 100% | 80 to 100% | 80 to 100% | 80 to 100% | 80 to 100% | 80 to 100% | 80 to 100% | 0 to 80% |
| 61 to 65 °C | COc1ccnc(C(=O)N[C@H]2COC[C@H](CCc3ccccc3)[C@@H](OCC(C)C)[C@H](C)OC2=O)c1OC(C)=O [Compound F50] | 80 to 100% | 80 to 100% | 80 to 100% | 80 to 100% |  |  |  |  |
| 85 to 91 °C | CCCCCO[C@@H]1[C@@H](Cc2cccc3ccccc23)COC[C@H](NC(=O)c2nccc(OC)c2OC(C)=O)C(=O)O[C@H]1C [Compound F52] | 80 to 100% | 80 to 100% | 80 to 100% | 0 to 80% |  |  |  |  |
| 88 to 93 °C | COc1ccnc(C(=O)N[C@H]2COC[C@H](Cc3ccc(C)cc3)[C@@H](OC(=O)C(C)C)[C@H](C)OC2=O)c1OC(C)=O [Compound F54] | 80 to 100% | 80 to 100% | 80 to 100% | 80 to 100% | 80 to 100% | 80 to 100% | 80 to 100% | 0 to 80% |
| 74 to 79 °C | COc1ccnc(C(=O)N[C@H]2COC[C@H](Cc3ccc(F)cc3)[C@@H](OC(=O)C(C)C)[C@H](C)OC2=O)c1OC(C)=O [Compound F56] | 80 to 100% | 80 to 100% | 80 to 100% | 80 to 100% |  |  |  |  |
| 69 to 73 °C | COc1ccnc(C(=O)N[C@H]2COC[C@H](Cc3ccc(Cl)cc3Cl)[C@@H](OCC(C)C)[C@H](C)OC2=O)c1OC(C)=O [Compound F74] | 80 to 100% | 80 to 100% | 80 to 100% | 80 to 100% |  |  |  |  |
| 55 to 59 °C | CCCCCO[C@@H]1[C@@H](Cc2ccc(Cl)cc2Cl)COC[C@H](NC(=O)c2nccc(OC)c2OC(C)=O)C(=O)O[C@H]1C [Compound F75] | 80 to 100% | 80 to 100% | 80 to 100% | 80 to 100% | 80 to 100% | 80 to 100% | 80 to 100% | 0 to 80% |
| 97 to 101 °C | COc1ccnc(C(=O)N[C@H]2COC[C@H](Cc3ccc(Cl)cc3Cl)[C@@H](Oc3ccc(C)cc3)[C@H](C)OC2=O)c1OC(C)=O [Compound F76] | 0 to 80% |  | 80 to 100% |  | 80 to 100% |  | 80 to 100% | 0 to 80% |
| 66 to 69 °C | COc1ccnc(C(=O)N[C@H]2COC[C@H](CC3CCCC3)[C@@H](OC(=O)C(C)C)[C@H](C)OC2=O)c1OC(C)=O [Compound F77] | 80 to 100% | 80 to 100% | 80 to 100% | 80 to 100% | 80 to 100% | 80 to 100% | 80 to 100% | 80 to 100% |
| 56 to 59 °C | COc1ccnc(C(=O)N[C@H]2COC[C@H](CC3CCCC3)[C@@H](OCC(C)C)[C@H](C)OC2=O)c1OC(C)=O [Compound F78] | 80 to 100% | 80 to 100% | 80 to 100% | 80 to 100% |  |  |  |  |
| 46 to 51 °C | CCCCCO[C@@H]1[C@@H](CC2CCCC2)COC[C@H](NC(=O)c2nccc(OC)c2OC(C)=O)C(=O)O[C@H]1C [Compound F79] | 80 to 100% | 80 to 100% | 80 to 100% | 80 to 100% | 80 to 100% | 80 to 100% | 80 to 100% | 0 to 80% |
| 45 to 50 °C | COc1ccnc(C(=O)N[C@H]2COC[C@H](CCc3ccccc3)[C@@H](OC3CCCC3)[C@H](C)OC2=O)c1OCOC(C)=O [Compound F81] | 80 to 100% | 80 to 100% | 80 to 100% | 80 to 100% |  |  |  |  |
| 61 to 68 °C | COc1ccnc(C(=O)N[C@H]2COC[C@H](Cc3cccc4ccccc34)[C@@H](OCCCC(F)(F)F)[C@H](C)OC2=O)c1OCOC(C)=O [Compound F84] | 80 to 100% |  | 80 to 100% | 80 to 100% |  |  |  |  |
| 83 to 88 °C | COc1ccnc(C(=O)N[C@H]2COC[C@H](Cc3cccc4ccccc34)[C@@H](Oc3ccc(C)cc3)[C@H](C)OC2=O)c1OCOC(C)=O [Compound F85] | 80 to 100% | 0 to 80% | 80 to 100% | 0 to 80% |  |  |  |  |
| 39 to 43 °C | CCCCCO[C@@H]1[C@@H](Cc2ccc(C)cc2)COC[C@H](NC(=O)c2nccc(OC)c2OCOC(C)=O)C(=O)O[C@H]1C [Compound F88] | 80 to 100% | 80 to 100% | 80 to 100% | 80 to 100% |  |  |  |  |
| 43 to 47 °C | COc1ccnc(C(=O)N[C@H]2COC[C@H](Cc3ccc(C)cc3)[C@@H](OC(=O)C(C)C)[C@H](C)OC2=O)c1OCOC(C)=O [Compound F89] | 80 to 100% | 80 to 100% | 80 to 100% | 80 to 100% |  |  |  |  |

| SMILES | melting point | pest or weed control at 100 ppm [1, 3] | pest or weed control at 100 ppm [1, 4] | pest or weed control at 100 ppm [2, 5] | pest or weed control at 100 ppm [2, 6] | pest or weed control at 121.5 g/ha [1, 3] | pest or weed control at 121.5 g/ha [1, 4] | pest or weed control at 121.5 g/ha [2, 5] | pest or weed control at 121.5 g/ha [2, 6] |
| --- | --- | --- | --- | --- | --- | --- | --- | --- | --- |
| COc1ccnc(C(=O)N[C@H]2COC[C@H](Cc3cccc4ccccc34)[C@@H](OC(=O)C(C)C)[C@H](C)OC2=O)c1OC(C)=O [Compound F51, (3S,6S,7R,8S)-3-(3-acetoxy-4-methoxypicolinamido)-6-methyl-8-(naphthalen-1-ylmethyl)-4-oxo-1,5-dioxonan-7-yl isobutyrate] | 104 to 108 °C | 80 to 100% | 80 to 100% | 80 to 100% | 0 to 80% |  |  |  |  |
